The values that follow come from patent publication US20090042964A1, “AMINO-5-[SUBSTITUTED-4-(DIFLUOROMETHOXY)PHENYL]-5-PHENYLIMIDAZOLONE COMPOUNDS AS BETA-SECRETASE INHIBITORS” (Wyeth, priority 2007, published 2009).

What is called IC50 is the midpoint of a concentration-inhibition curve.

A value given as a limit tells only on which side of the number the result lay.

The target of one test is human BACE1 (Homo sapiens, UniProt P56817). Description: Fluorescent kinetic assay, evaluation of BACE1 binding affinity of test compounds. The note with it: 10 nM human BACE1, 25 μM substrate WABC-6, pH 4.5, room temperature; read-out: BACE1 IC50. It is filed as biochemical. On the procedure: Concentration is determined by absorbance at 354 nm using an extinction coefficient of 18172 M^-1 cm^-1, the concentration of stock substrate is corrected, and the substrate stock stored in small aliquots in -80° C. […] Determination of Stock Enzyme Concentration: the stock concentration of each enzyme is determined by absorbance at 280 nm using an of 64150 M^-1 cm^-1 for hBACE1 and MuBACE1, 62870 M^-1 cm^-1 for hBACE2 in 6 M Guanidinium Hydrochloride (from Research Organics, Cat. # 5134G-2), pH 6. […] Biochem. 182, 319-326). Dilution and mixing steps: total reaction volume: 100 μL 2× inhibitor dilutions in buffer A (66.7 mM Na-Acetate, pH 4.5, 0.0667% CHAPS) were prepared, 4× enzyme dilution in buffer A (66.7 mM Na-Acetate, pH 4.5, 0.0667% CHAPS) were prepared, 100 μM substrate dilution in 1×PBS was prepared, and 50 μL 2× Inhibitor, 25 μL 100 μM substrate are added to each well of 96-well plate (from DYNEX Technologies, VWR #: 11311-046), immediately followed by 25 μL 4× enzyme (added to the inhibitor and substrate mix), and the fluorescence readings are initiated.
human BACE1, sequence (P56817 46-501): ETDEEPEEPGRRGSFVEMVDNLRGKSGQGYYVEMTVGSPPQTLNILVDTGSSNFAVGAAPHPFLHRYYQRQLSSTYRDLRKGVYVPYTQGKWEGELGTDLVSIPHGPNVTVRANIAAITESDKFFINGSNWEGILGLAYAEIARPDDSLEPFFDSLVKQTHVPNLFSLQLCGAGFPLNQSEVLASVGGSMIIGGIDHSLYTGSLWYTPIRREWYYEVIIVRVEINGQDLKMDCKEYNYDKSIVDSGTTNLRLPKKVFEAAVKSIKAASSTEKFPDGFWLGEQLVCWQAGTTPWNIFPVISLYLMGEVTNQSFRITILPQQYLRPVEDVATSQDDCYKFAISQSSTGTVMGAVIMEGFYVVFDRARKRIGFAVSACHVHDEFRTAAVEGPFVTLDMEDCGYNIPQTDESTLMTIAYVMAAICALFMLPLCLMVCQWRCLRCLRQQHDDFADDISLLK
Take `CCCCOc1cccc(C2(c3ccc(OC(F)F)c(Cl)c3)N=C(N)N(C)C2=O)c1` (centres unmarked) [Example 35, 2-Amino-5-(3-butoxyphenyl)-5-[3-chloro-4-(difluoromethoxy)-phenyl]-3-methyl-3,5-dihydro-4H-imidazol-4-one]: the IC50 is less than 0.1 µM.

As for `CCOc1cccc(C2(c3ccc(OC(F)F)c(Cl)c3)N=C(N)N(C)C2=O)c1` (centres unmarked) [Example 36, 2-Amino-5-[3-chloro-4-(difluoromethoxy)phenyl]-5-(3-ethoxyphenyl)-3-methyl-3,5-dihydro-4H-imidazol-4-one], the IC50 lay within 0.11 to 1 µM.

As for `CN1C(=O)C(c2cccc(OCCF)c2)(c2ccc(OC(F)F)c(Cl)c2)N=C1N` (centres unmarked) [Example 37, 2-Amino-5-[3-chloro-4-(difluoromethoxy)phenyl]-5-[3-(2-fluoroethoxy)phenyl]-3-methyl-3,5-dihydro-4H-imidazol-4-one], the IC50 is less than 0.1 µM.

Regarding `CN1C(=O)C(c2cccc(OCC(F)F)c2)(c2ccc(OC(F)F)c(Cl)c2)N=C1N` (centres unmarked) [Example 38, 2-Amino-5-[3-chloro-4-(difluoromethoxy)phenyl]-5-[3-(2,2-difluoroethoxy)phenyl]-3-methyl-3,5-dihydro-4H-imidazol-4-one], the IC50 is less than 0.1 µM.

For the molecule `CCCOc1cccc(C2(c3ccc(OC(F)F)c(Cl)c3)N=C(N)N(C)C2=O)c1` (centres unmarked) [Example 39, 2-Amino-5-[3-chloro-4-(difluoromethoxy)phenyl]-3-methyl-5-(3-propoxyphenyl)-3,5-dihydro-4H-imidazol-4-one], the IC50 is less than 0.1 µM.

For the molecule `CN1C(=O)C(c2cccc(OCCCF)c2)(c2ccc(OC(F)F)c(Cl)c2)N=C1N` (centres unmarked) [Example 40, 2-Amino-5-[3-chloro-4-(difluoromethoxy)phenyl]-5-[3-(3-fluoropropoxy)phenyl]-3-methyl-3,5-dihydro-4H-imidazol-4-one], the IC50 is less than 0.1 µM.

As to `CCOc1cccc(C2(c3ccc(OC(F)F)c(C)c3)N=C(N)N(C)C2=O)c1` (centres unmarked) [Example 41, 2-Amino-5-[4-(difluoromethoxy)-3-methylphenyl]-5-(3-ethoxyphenyl)-3-methyl-3,5-dihydro-4H-imidazol-4-one], the half-maximal inhibitory concentration (IC50) was less than 0.1 µM.

With `Cc1cc(C2(c3cccc(OCCF)c3)N=C(N)N(C)C2=O)ccc1OC(F)F` (centres unmarked) [Example 42], the IC50 is less than 0.1 µM.

As to `Cc1cc(C2(c3cccc(OCC(F)F)c3)N=C(N)N(C)C2=O)ccc1OC(F)F` (centres unmarked) [Example 43, 2-Amino-5-[3-(2,2-difluoroethoxy)phenyl]-5-[4-(difluoromethoxy)-3-methylphenyl]-3-methyl-3,5-dihydro-4H-imidazol-4-one], the IC50 was less than 0.1 µM.

Regarding `CCCOc1cccc(C2(c3ccc(OC(F)F)c(C)c3)N=C(N)N(C)C2=O)c1` (centres unmarked) [Example 44, 2-Amino-5-[4-(difluoromethoxy)-3-methylphenyl]-3-methyl-5-(3-propoxyphenyl)-3,5-dihydro-4H-imidazol-4-one], the IC50 was less than 0.1 µM.

With `Cc1cc(C2(c3cccc(OCCCF)c3)N=C(N)N(C)C2=O)ccc1OC(F)F` (centres unmarked) [Example 45, 2-Amino-5-[4-(difluoromethoxy)-3-methylphenyl]-5-[3-(3-fluoropropoxy)phenyl]-3-methyl-3,5-dihydro-4H-imidazol-4-one], the IC50 was less than 0.1 µM.

As to `Cc1cc(C2(c3ccc(F)c(C#CC(C)C)c3)N=C(N)N(C)C2=O)ccc1OC(F)F` (centres unmarked) [Example 48, 2-Amino-5-[4-(difluoromethoxy)-3-methylphenyl]-5-[4-fluoro-3-(3-methylbut-1-yn-1-yl)phenyl]-3-methyl-3,5-dihydro-4H-imidazol-4-one], the IC50 was less than 0.1 µM.

Consider `COC/C=C/c1cc(C2(c3ccc(OC(F)F)c(C)c3)N=C(N)N(C)C2=O)ccc1F` (centres unmarked) [Example 57, 2-Amino-5-(4-difluoromethoxy-3-methylphenyl)-5-[4-fluoro-3-((E)-3-methoxypropenyl)phenyl]-3-methyl-3,5-dihydro-imidazol-4-one], for which the 50% inhibitory concentration (IC50) was less than 0.1 µM.

For `Cc1cc(C2(c3ccc(F)c(/C=C/CCF)c3)N=C(N)N(C)C2=O)ccc1OC(F)F` (centres unmarked) [Example 58, 2-Amino-5-[4-(difluoromethoxy)-3-methylphenyl]-5-[4-fluoro-3-((E)-4-fluorobut-1-enyl)phenyl]-3-methyl-3,5-dihydro-4H-imidazol-4-one], the IC50 is less than 0.1 µM.

Regarding `C/C=C/c1cc(C2(c3ccc(OC(F)F)c(C)c3)N=C(N)N(C)C2=O)ccc1F` (centres unmarked) [Example 59, 2-Amino-5-[4-(difluoromethoxy)-3-methylphenyl]-5-[4-fluoro-3-((E)-prop-1-enyl)phenyl]-3-methyl-3,5-dihydro-4H-imidazol-4-one], the IC50 was less than 0.1 µM.

Still in this test, the particulars now being: BACE1 IC50 μM, 10 nM human BACE1, 25 μM substrate WABC-6, pH 4.5, room temperature.
Molecule `CN1C(=O)C(c2ccccc2)(c2ccc(OC(F)F)c(C3CC3)c2)N=C1N` (centres unmarked) [Example 10, 2-Amino-5-[3-cyclopropyl-4-(difluoromethoxy)phenyl]-3-methyl-5-phenyl-3,5-dihydro-4H-imidazol-4-one] displayed an IC50 of less than 0.1 µM.

Regarding `C=Cc1cc(C2(c3ccccc3)N=C(N)N(C)C2=O)ccc1OC(F)F` (centres unmarked) [Example 11, 2-Amino-5-[4-(difluoromethoxy)-3-vinylphenyl)-3-methyl-5-phenyl-3,5-dihydro-4H-imidazol-4-one], the IC50 lay in the range of 0.11 to 1 µM.

In turn, `CN1C(=O)C(c2ccccc2)(c2ccc(OC(F)F)c(C(F)(F)F)c2)N=C1N` (centres unmarked) [Example 12, 2-Amino-5-[4-(difluoromethoxy)-3-(trifluoromethyl)phenyl]-3-methyl-5-phenyl-3,5-dihydro-4H-imidazol-4-one] registered an IC50 of 0.11 to 1 µM.

On to `CN1C(=O)C(c2ccccc2)(c2ccc(OC(F)F)c(CF)c2)N=C1N` (centres unmarked) [Example 13, 2-Amino-5-[4-(difluoromethoxy)-3-(fluoromethyl)phenyl]-3-methyl-5-phenyl-3,5-dihydro-4H-imidazol-4-one], for which the IC50 is 0.11 to 1 µM.

As for `COc1cc(C2(c3ccccc3)N=C(N)N(C)C2=O)ccc1OC(F)F` (centres unmarked) [Example 15, 2-Amino-5-[4-(difluoromethoxy)-3-methoxyphenyl]-3-methyl-5-phenyl-3,5-dihydro-4H-imidazol-4-one], the IC50 lay within 0.11 to 1 µM.

With `CN1C(=O)C(c2ccccc2)(c2ccc(OC(F)F)c(F)c2)N=C1N` (centres unmarked) [Example 17, 2-Amino-5-[4-(difluoromethoxy)-3-fluorophenyl]-3-methyl-5-phenyl-3,5-dihydro-4H-imidazol-4-one], the IC50 was in the range of 0.11 to 1 µM.

With `Cc1cc(C2(c3ccc(OC(F)F)c(C)c3)N=C(N)N(C)C2=O)ccc1F` (centres unmarked) [Example 20, 2-Amino-5-[4-(difluoromethoxy)-3-methylphenyl]-5-(4-fluoro-3-methylphenyl)-3-methyl-3,5-dihydro-4H-imidazol-4-one], the IC50 lay in the range of 0.11 to 1 µM.

`COc1ccc(C2(c3ccc(OC(F)F)c(C)c3)N=C(N)N(C)C2=O)cc1C#N` (centres unmarked) [Example 21, 5-{2-Amino-4-[4-(difluoromethoxy)-3-methylphenyl]-1-methyl-5-oxo-4,5-dihydro-1H-imidazol-4-yl}-2-methoxybenzonitrile] returned an IC50 of 0.11 to 1 µM.

Molecule `Cc1cc(C2(c3ccc(F)c(CF)c3)N=C(N)N(C)C2=O)ccc1OC(F)F` (centres unmarked) [Example 22, 2-Amino-5-[4-(difluoromethoxy)-3-methylphenyl]-5-[4-fluoro-3-(fluoromethyl)phenyl]-3-methyl-3,5-dihydro-4H-imidazol-4-one] gave an IC50 of 0.11 to 1 µM.

For the molecule `CCc1cc([C@]2(c3ccccc3)N=C(N)N(C)C2=O)ccc1OC(F)F` [Example 23, (5S)-2-Amino-4-[4-(difluoromethoxy)-3-ethylphenyl]-1-methyl-4-phenyl-1H-imidazol-5(4H)-one], the IC50 is less than 0.1 µM.

In turn, `CCc1cc([C@@]2(c3ccccc3)N=C(N)N(C)C2=O)ccc1OC(F)F` [Example 24, (5R)-2-Amino-4-[4-(difluoromethoxy)-3-ethylphenyl]-1-methyl-4-phenyl-1H-imidazol-5(4H)-one] had an IC50 greater than 1 µM.

`CN1C(=O)[C@](c2ccccc2)(c2ccc(OC(F)F)c(Cl)c2)N=C1N` [Example 27, (5S)-2-Amino-5-[3-chloro-4-(difluoromethoxy)phenyl]-1-methyl-5-phenyl-3,5-dihydro-4H-imidazol-4-one] showed an IC50 of 0.11 to 1 µM.

In turn, `CN1C(=O)[C@@](c2ccccc2)(c2ccc(OC(F)F)c(Cl)c2)N=C1N` [Example 28, (5R)-2-Amino-5-[3-chloro-4-(difluoromethoxy)phenyl]-1-methyl-5-phenyl-3,5-dihydro-4H-imidazol-4-one] came in with an IC50 greater than 1 µM.

`Cc1cc(C2(c3ccc(F)c(Br)c3)N=C(N)N(C)C2=O)ccc1OC(F)F` (centres unmarked) [Example 31] gave an IC50 of 0.11 to 1 µM.

For `Cc1cc(C2(c3ccc(F)c(Br)c3)N=C(N)N(C)C2=O)ccc1OC(F)F` (centres unmarked) [Example 32], the IC50 is less than 0.1 µM.

`C=Cc1cc([C@@]2(c3ccccc3)N=C(N)N(C)C2=O)ccc1OC(F)F` [Example 33, (5R)-2-Amino-5-[4-(difluoromethoxy)-3-vinylphenyl]-3-methyl-5-phenyl-3,5-dihydro-4H-imidazol-4-one]: the IC50 is less than 0.1 µM.

Molecule `C=Cc1cc([C@]2(c3ccccc3)N=C(N)N(C)C2=O)ccc1OC(F)F` [Example 34, (5S)-2-Amino-5-[4-(difluoromethoxy)-3-vinylphenyl]-3-methyl-5-phenyl-3,5-dihydro-4H-imidazol-4-one] returned an IC50 greater than 1 µM.
